Measurements from US11306125B2, “PCSK9 antagonists bicyclo-compounds” (Merck Sharp & Dohme Corp., priority 2018, dated 2022).
Starred links: 1 amine or outer side, 2 acyl side, 3 side chain; linkers in the order of their positions; H or OH if unused. Positions of bridges follow the written chain, without caps; N, C: chain ends. Non-standard residues stand in square brackets, D forms with d. Residues, ends and D or L forms follow the SMILES beside them. *: point of attachment. X2 = CC1(C)C(/C=C/C=C/C=C2\N(CCCS(=O)(=O)O)c3ccc(S(=O)(=O)O)cc3C2(C)CCCCCC(=O)*)=[N+](CCCS(=O)(=O)[O-])c2ccc(S(=O)(=O)O)cc21; Phe(3-CH2NH2) = O=C([C@H](Cc1cccc(CN[*:3])c1)N[*:1])[*:2]; Me3N+(CH2)2O(CH2)2O(CH2)2CO = C[N+](C)(C)CCOCCOCCC(=O)*; Trp(5-F) = N[C@@H](Cc1c[nH]c2ccc(F)cc12)C(=O)O; X1 = O=C(CCC(=O)[*:1])NCc1ccc(CCN[*:2])cc1; mXylylene = c1cc(C[*:1])cc(C[*:2])c1; AEF = NCCOc1ccc(C[C@H](N)C(=O)O)cc1; Glutaryl = O=C(CCCC(=O)[*:2])[*:1]; NMeE = CN[C@@H](CCC(=O)O)C(=O)O; αMeP = C[C@@]1(C(=O)O)CCCN1; dDap = NC[C@@H](N)C(=O)O; Dap = NC[C@H](N)C(=O)O; Boc = CC(C)(C)OC(=O)*; Mpa = O=C(O)CCS; tBu = CC(C)(C)*

Columns and labels:
Assay type in all cases: binding
[1] = biological target: T1, PCSK9 (Homo sapiens, UniProt Q8NBP7); test: PCSK9 Alexa FRET Standard TR-FRET assay
T1 construct: purchased
T1 sequence (Q8NBP7 153-692): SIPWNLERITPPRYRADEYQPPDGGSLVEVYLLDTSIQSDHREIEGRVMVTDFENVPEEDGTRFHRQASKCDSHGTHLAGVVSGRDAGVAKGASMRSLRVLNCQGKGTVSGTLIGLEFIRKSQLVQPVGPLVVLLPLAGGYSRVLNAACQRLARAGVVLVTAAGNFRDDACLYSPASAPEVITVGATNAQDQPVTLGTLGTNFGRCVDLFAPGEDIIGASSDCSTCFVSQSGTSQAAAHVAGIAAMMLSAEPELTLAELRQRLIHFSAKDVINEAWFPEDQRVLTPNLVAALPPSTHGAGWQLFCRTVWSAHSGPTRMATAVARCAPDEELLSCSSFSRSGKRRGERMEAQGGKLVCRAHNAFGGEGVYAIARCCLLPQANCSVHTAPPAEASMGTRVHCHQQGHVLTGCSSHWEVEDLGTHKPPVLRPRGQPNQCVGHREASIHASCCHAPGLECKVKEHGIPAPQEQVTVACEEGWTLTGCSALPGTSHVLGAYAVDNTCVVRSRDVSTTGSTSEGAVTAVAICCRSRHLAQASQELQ
Protocol: A solution containing 1 nM biotinylated PCSK9+2.5 nM Lance Streptavidin Europium (Strep-Eu) is made in 50 mM HEPES pH 7.4, 0.15 M NaCl, 5 mM CaCl2, 0.01% BSA, and 0.01% Surfactant P20. […] An Echo is used to transfer 0.750 ul of compound to an assay plate followed by the addition of 15 ul of PCSK9+Stept-Eu and 15 ul of AF peptide. […] The reaction is incubated at room temperature for at least two hours prior to fluorescence measurements using an Envision Multilabel Reader. IC50 values are determined by fitting data to a sigmoidal dose-response curve using nonlinear regression. Ki is then calculated from the Ic50 and the KD of AF cyclic peptide. Counts (B-counts) of the europium-labeled PCSK9 are followed to observe if compounds are adversely PCSK9. A fall off of the B-counts is likely indicates a false positive of inhibition. Data from this procedure is reported as “A=‘numerical value’ (nanomolar)”

[2] = biological target: T1, PCSK9; test: PCSK9 Alexa FRET Plus TR-FRET assay
Protocol: A solution containing 1 nM biotinylated PCSK9+2.5 nM Lance Streptavidin Europium (Strep-Eu) is made in 50 mM HEPES pH 7.4, 0.15 M NaCl, 5 mM CaCl2, 0.01% BSA, and 0.01% Surfactant P20. A separate solution containing 1920 nM of the AlexaFluor tagged cyclic peptide is made in the same buffer system. An Echo is used to transfer 0.075 ul of compound plus 0.675 ul of DMSO to each well of an assay plate followed by the addition of 15 ul of PCSK9+Stept-Eu and 15 ul of AF peptide. The final assay volume is 30.750 ul containing 0.5 nM PCSK9, 1.25 nM Strep-Eu, and 960 nM AF cyclic peptide. The reaction is incubated at room temperature for at least two hours prior to fluorescence measurements using an Envision Multilabel Reader. IC50 values are determined by fitting data to a sigmoidal dose-response curve using nonlinear regression. Ki is then calculated from the IC50 and the KD of AF cyclic peptide. Counts (B-counts) of the europium-labeled PCSK9 are followed to observe if compounds are adversely affecting PCSK9. A fall off of the B-counts is likely indicates a false positive of inhibition. Data from this procedure is reported as “P=‘numerical value’ (nanomolar)”

[3] = biological target: T1, PCSK9; test: KD of the AlexaFluor647 tagged cyclic peptide probes for PCSK9; details: AF tagged cyclic peptide probe, interaction with PCSK9
[4] = displacement of AlexaFluor647 tagged cyclic peptide Reagent A (20 nM) from biotinylated PCSK9 (0.5 nM), read-out: A (standard TR Fret), Ki calculated from the IC50 and the KD of AF cyclic peptide
[5] = displacement of AlexaFluor647 tagged cyclic peptide Reagent B (960 nM) from biotinylated PCSK9 (0.5 nM), read-out: Plus / P (Alexa Fret plus standard TR Fret), Ki calculated from the IC50 and the KD of AF cyclic peptide

Compound	Ki [1, 4] [nM]	Ki [1] [nM]	Ki [2] [nM]	further results
COc1ccc(C[C@@H]2NC(=O)[C@H]([C@H](C)O)NC(=O)[C@@H]3[C@@H]4CCN3C(=O)[C@H](Cc3c[nH]c5ccc(F)cc35)NC(=O)[C@H](Cc3cccc(c3)Cn3cc(nn3)CO4)NC(=O)[C@@H](C)NC(=O)[C@H](C)NC(=O)[C@@H](NC(C)=O)CC(=O)NCc3ccc(cc3)C[C@@H](C(N)=O)NC(=O)[C@]3(C)CCCN3C2=O)cc1 [Ex-OT-03]	< 1.26	–	–	Ki [2, 5]: 0.32 nM
COc1ccc(C[C@@H]2NC(=O)[C@H]([C@@H](C)O)NC(=O)[C@@H]3CCC(=O)NCc4cccc(c4)C[C@H](NC(=O)[C@@H](C)NC(=O)[C@H](CN)NC(=O)CCC(=O)NCc4ccc(cc4)CCNC(=O)[C@]4(C)CCCN4C2=O)C(=O)N[C@@H](Cc2c[nH]c4ccc(F)cc24)C(=O)N3C)cc1 [Ex-C04] ([Dap][dA][Phe(3-CH2NH2)][Trp(5-F)][NMeE]TY(Me)[αMeP]; lactam 3-5; linker N-C via X1)	4.24	–	–	–
COc1ccc(C[C@@H]2NC(=O)[C@H]([C@@H](C)O)NC(=O)[C@@H]3CCC(=O)NCc4cccc(c4)C[C@H](NC(=O)[C@@H](CNC(=O)CCOCCOCC[N+](C)(C)C)NC(=O)[C@H](C)NC(=O)CCC(=O)NCc4ccc(cc4)CCNC(=O)[C@]4(C)CCCN4C2=O)C(=O)N[C@@H](Cc2c[nH]c4ccc(F)cc24)C(=O)N3C)cc1 [Ex-C07] (A[dDap](Me3N+(CH2)2O(CH2)2O(CH2)2CO)[Phe(3-CH2NH2)][Trp(5-F)][NMeE]TY(Me)[αMeP]; lactam 3-5; linker N-C via X1)	7.17	–	–	–
COc1ccc(C[C@@H]2NC(=O)[C@H]([C@@H](C)O)NC(=O)[C@@H]3CCC(=O)NCc4cccc(c4)C[C@H](NC(=O)[C@@H](CN)NC(=O)[C@H](C)NC(=O)CCC(=O)NCc4ccc(cc4)CCNC(=O)[C@]4(C)CCCN4C2=O)C(=O)N[C@@H](Cc2c[nH]c4ccc(F)cc24)C(=O)N3C)cc1 [Ex-C06] (A[dDap][Phe(3-CH2NH2)][Trp(5-F)][NMeE]TY(Me)[αMeP]; lactam 3-5; linker N-C via X1)	15.9	–	–	–
COc1ccc(C[C@@H]2NC(=O)[C@H]([C@@H](C)O)NC(=O)[C@@H]3[C@@H]4CCN3C(=O)[C@H](Cc3c[nH]c5ccc(F)cc35)NC(=O)[C@H](Cc3cccc(c3)CNC(=O)CO4)NC(=O)[C@@H](C)NC(=O)[C@H](CN)NC(=O)CCC(=O)NCc3ccc(cc3)CCNC(=O)[C@]3(C)CCCN3C2=O)cc1 [Ex-B01]	–	2.04	1.24	–
COc1ccc(C[C@@H]2NC(=O)[C@H]([C@@H](C)O)NC(=O)[C@@H]3[C@@H]4CCN3C(=O)[C@H](Cc3c[nH]c5ccc(F)cc35)NC(=O)[C@H](Cc3cccc(c3)Cn3cc(nn3)CO4)NC(=O)[C@@H](C)NC(=O)[C@H](CNC(=O)CCOCCOCC[N+](C)(C)C)NC(=O)CCC(=O)NCc3ccc(cc3)CCNC(=O)[C@]3(C)CCCN3C2=O)cc1 [Ex-OT-06]	–	< 1.26	0.29	–
COc1ccc(C[C@@H]2NC(=O)[C@H]([C@@H](C)O)NC(=O)[C@@H]3CCC(=O)NCc4cccc(c4)C[C@H](NC(=O)[C@@H](C)NC(=O)[C@H](C)NC(=O)[C@@H](NC(C)=O)CC(=O)NCCOc4ccc(cc4)C[C@@H](C(N)=O)NC(=O)[C@]4(C)CCCN4C2=O)C(=O)N[C@@H](Cc2c[nH]c4ccc(F)cc24)C(=O)N3C)cc1 [Ex-C01] (Ac-DA[dA][Phe(3-CH2NH2)][Trp(5-F)][NMeE]TY(Me)[αMeP][AEF]-NH2; lactam 1-10, 4-6)	27.8	–	–	–
COc1ccc(C[C@@H]2NC(=O)[C@H]([C@@H](C)O)NC(=O)C[C@@H]3[C@@H]4CCN3C(=O)[C@H](Cc3c[nH]c5ccc(F)cc35)NC(=O)[C@H](Cc3cccc(c3)CNC(=O)CO4)NC(=O)[C@@H](CNC(=O)CCOCCOCC[N+](C)(C)C)NC(=O)[C@H](C)NC(=O)CCC(=O)NCc3ccc(cc3)CCNC(=O)[C@]3(C)CCCN3C2=O)cc1 [Ex-B04]	< 1.26	–	–	Ki [2, 5]: 0.02 nM
COc1ccc(C[C@@H]2NC(=O)[C@H]([C@H](C)O)NC(=O)[C@@H]3[C@@H]4CCN3C(=O)[C@H](Cc3c[nH]c5ccc(F)cc35)NC(=O)[C@H](Cc3cccc(c3)Cn3cc(nn3)CO4)NC(=O)[C@@H](C)NC(=O)[C@H](CCCC[N+](C)(C)C)NC(=O)CCC(=O)NCc3ccc(cc3)C[C@@H](C(N)=O)NC(=O)[C@]3(C)CCCN3C2=O)cc1 [Ex-OT-04]	< 1.26	–	–	Ki [2, 5]: 0.32 nM
COc1ccc(C[C@@H]2NC(=O)[C@H]([C@H](C)O)NC(=O)[C@@H]3[C@@H]4CCN3C(=O)[C@H](Cc3c[nH]c5ccc(F)cc35)NC(=O)[C@H](Cc3cccc(c3)Cn3cc(nn3)CO4)NC(=O)[C@@H](C)NC(=O)[C@H](CNC(=O)CCOCCOCC[N+](C)(C)C)NC(=O)CCC(=O)NCc3ccc(cc3)C[C@@H](C(N)=O)NC(=O)[C@]3(C)CCCN3C2=O)cc1 [Ex-OT-05]	–	< 1.26	0.19	–
COc1ccc(C[C@@H]2NC(=O)[C@H]([C@@H](C)OC(C)(C)C)NC(=O)[C@@H]3CCC(=O)NCc4cccc(c4)C[C@H](NC(=O)[C@@H](CNC(=O)OC(C)(C)C)NC(=O)[C@H](C)NC(=O)CCC(=O)NCc4ccc(cc4)CCNC(=O)[C@]4(C)CCCN4C2=O)C(=O)N[C@@H](Cc2c[nH]c4ccc(F)cc24)C(=O)N3C)cc1 [Ex-C05] (A[dDap](Boc)[Phe(3-CH2NH2)][Trp(5-F)][NMeE]T(tBu)Y(Me)[αMeP]; lactam 3-5; linker N-C via X1)	< 1.26	–	–	Ki [2, 5]: 4.37 nM
CC1(C)C(/C=C/C=C/C=C2\N(CCCS(=O)(=O)O)c3ccc(S(=O)(=O)O)cc3C2(C)CCCCCC(=O)NCCCC[C@@H]2NC(=O)CCSCc3cccc(c3)CSC[C@@H](C(N)=O)NC(=O)[C@]3(C)CCCN3C(=O)[C@H](Cc3ccc(O)cc3)NC(=O)[C@H](Cc3c[nH]cn3)NC(=O)[C@H](CC(=O)O)NC(=O)[C@H](Cc3c[nH]c4ccc(F)cc34)NC(=O)[C@H](Cc3c[nH]c4ccc(F)cc34)NC(=O)CNC2=O)=[N+](CCCS(=O)(=O)[O-])c2ccc(S(=O)(=O)O)cc21 (stereo partly shown) [Reagent A] ([Mpa]K(X2)G[Trp(5-F)][Trp(5-F)]DHY[αMeP]C-NH2; linker 1-10 via mXylylene)	–	–	–	Kd [3]: 83 nM
COc1ccc(C[C@@H]2NC(=O)[C@H]([C@@H](C)O)NC(=O)[C@@H]3CCC(=O)NCc4cccc(c4)C[C@H](NC(=O)[C@@H](C)NC(=O)[C@H](CNC(=O)CCOCCOCC[N+](C)(C)C)NC(=O)CCC(=O)NCc4ccc(cc4)CCNC(=O)[C@]4(C)CCCN4C2=O)C(=O)N[C@@H](Cc2c[nH]c4ccc(F)cc24)C(=O)N3C)cc1 [Ex-C03] ([Dap](Me3N+(CH2)2O(CH2)2O(CH2)2CO)[dA][Phe(3-CH2NH2)][Trp(5-F)][NMeE]TY(Me)[αMeP]; lactam 3-5; linker N-C via X1)	18.4	–	–	–
COc1ccc(C[C@@H]2NC(=O)[C@H]([C@@H](C)O)NC(=O)[C@@H]3[C@@H]4CCN3C(=O)[C@H](Cc3c[nH]c5ccc(F)cc35)NC(=O)[C@H](Cc3cccc(c3)CNC(=O)CO4)NC(=O)[C@@H](C)NC(=O)[C@H](CNC(=O)CCOCCOCC[N+](C)(C)C)NC(=O)CCC(=O)NCc3ccc(cc3)CCNC(=O)[C@]3(C)CCCN3C2=O)cc1 [Ex-B02]	–	4.02	2.19	–
COc1ccc(C[C@@H]2NC(=O)[C@H]([C@@H](C)O)NC(=O)[C@@H]3[C@@H]4CCN3C(=O)[C@H](Cc3c[nH]c5ccc(F)cc35)NC(=O)[C@H](Cc3cccc(c3)CNC(=O)CO4)NC(=O)C(CN)NC(=O)[C@H](C)NC(=O)CCC(=O)NCc3ccc(cc3)CCNC(=O)[C@]3(C)CCCN3C2=O)cc1 (stereo partly shown) [Ex-B03]	–	< 1.26	0.008	–
COc1ccc(C[C@@H]2NC(=O)[C@H]([C@@H](C)O)NC(=O)[C@@H]3CCC(=O)NCc4cccc(c4)C[C@H](NC(=O)[C@@H](C)NC(=O)CCCC(=O)NCCOc4ccc(cc4)C[C@@H](C(N)=O)NC(=O)[C@]4(C)CCCN4C2=O)C(=O)N[C@@H](Cc2c[nH]c4ccc(F)cc24)C(=O)N3C)cc1 [Ex-C02] ([dA][Phe(3-CH2NH2)][Trp(5-F)][NMeE]TY(Me)[αMeP][AEF]-NH2; lactam 2-4; linker N-8 via Glutaryl)	151	–	–	–
